Results taken from the supplement of paper PMC10307832.

Columns and labels:
Assay in all cases: relative viability (nuclei count vs DMSO), 5 days (fraction); higher = more cells survive
Tipifarnib + Olaparib = compound: Cn1cncc1[C@@](N)(c1ccc(Cl)cc1)c1ccc2c(c1)c(-c1cccc(Cl)c1)cc(=O)n2C [Tipifarnib] + O=C(c1cc(Cc2n[nH]c(=O)c3ccccc23)ccc1F)N1CCN(C(=O)C2CC2)CC1 [Olaparib] (partner 8 µM)
Method in brief: (§1)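 Cells from lung cancer lines were seeded into 1536-well plates and, one day later, dosed by pin tool. Treatments were either a single drug or a fixed dose of an anchor drug with five library-drug doses (not always all listed) in √10 steps. After 5 days, nuclei were stained in a one-step fixation (final 0.05% Triton X-100, 1% formaldehyde, 1 ug/ml Hoechst) and counted on 4× images, and relative viability is the treated-to-vehicle nuclei ratio, as the median of duplicate plates.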

Tipifarnib + AZD7762 = compound: Cn1cncc1[C@@](N)(c1ccc(Cl)cc1)c1ccc2c(c1)c(-c1cccc(Cl)c1)cc(=O)n2C [Tipifarnib] + NC(=O)Nc1cc(-c2cccc(F)c2)sc1C(=O)N[C@H]1CCCNC1 [AZD7762] (partner 0.2 µM)
Method in brief: as §1

Tipifarnib + Lapatinib = compound: Cn1cncc1[C@@](N)(c1ccc(Cl)cc1)c1ccc2c(c1)c(-c1cccc(Cl)c1)cc(=O)n2C [Tipifarnib] + CS(=O)(=O)CCNCc1ccc(-c2ccc3ncnc(Nc4ccc(OCc5cccc(F)c5)c(Cl)c4)c3c2)o1 [Lapatinib] (partner 2 µM)
Method in brief: as §1

Tipifarnib + Decitabine = compound: Cn1cncc1[C@@](N)(c1ccc(Cl)cc1)c1ccc2c(c1)c(-c1cccc(Cl)c1)cc(=O)n2C [Tipifarnib] + Nc1ncn([C@H]2C[C@H](O)[C@@H](CO)O2)c(=O)n1 [Decitabine] (partner 2 µM)
Method in brief: as §1

Cell Line | relative viability (Tipifarnib + Olaparib; first compound 0.01 µM) | relative viability (Tipifarnib + Olaparib; first compound 0.03162 µM) | relative viability (Tipifarnib + Olaparib; first compound 0.1 µM) | relative viability (Tipifarnib + Olaparib; first compound 0.3162 µM) | relative viability (Tipifarnib + Olaparib; first compound 1 µM) | relative viability (Tipifarnib + AZD7762; first compound 0.01 µM) | relative viability (Tipifarnib + AZD7762; first compound 0.03162 µM) | relative viability (Tipifarnib + AZD7762; first compound 0.1 µM) | relative viability (Tipifarnib + AZD7762; first compound 0.3162 µM) | relative viability (Tipifarnib + AZD7762; first compound 1 µM) | relative viability (Tipifarnib + Lapatinib; first compound 0.01 µM) | relative viability (Tipifarnib + Lapatinib; first compound 0.03162 µM) | relative viability (Tipifarnib + Lapatinib; first compound 0.1 µM) | relative viability (Tipifarnib + Lapatinib; first compound 0.3162 µM) | relative viability (Tipifarnib + Lapatinib; first compound 1 µM) | relative viability (Tipifarnib + Decitabine; first compound 0.01 µM) | relative viability (Tipifarnib + Decitabine; first compound 0.03162 µM) | relative viability (Tipifarnib + Decitabine; first compound 0.1 µM) | relative viability (Tipifarnib + Decitabine; first compound 0.3162 µM) | relative viability (Tipifarnib + Decitabine; first compound 1 µM)
201T | 0.851 | 0.86 | 0.83 | 0.733 | 0.793 | 0.679 | 0.628 | 0.573 | 0.546 | 0.449 | 0.988 | 1.05 | 0.965 | 0.947 | 0.866 | 0.875 | 0.841 | 0.88 | 0.783 | 0.816
A-427 | 0.834 | 0.696 | 0.697 | 0.694 | 0.727 | 0.837 | 0.79 | 0.553 | 0.599 | 0.601 | 1 | 1.13 | 1.08 | 0.893 | 0.46 | 0.621 | 0.548 | 0.574 | 0.478 | 0.449
ABC-1 | 0.7 | 0.776 | 0.819 | 0.986 | 0.912 | 1.04 |  |  | 0.558 | 0.54 | 1.37 | 1.39 | 1.58 | 1.39 | 1.59 | 1.33 | 1.03 | 1.13 | 0.738 | 0.706
BEN | 1.26 | 1.11 | 0.954 | 0.96 | 0.954 | 0.738 | 0.659 | 0.629 | 0.663 | 0.528 | 0.743 | 0.842 | 0.629 | 0.578 | 0.568 | 0.748 | 0.759 | 0.66 | 0.699 | 0.503
CAL-12T | 0.717 | 0.587 | 0.527 | 0.455 | 0.465 | 0.635 | 0.549 | 0.62 | 0.408 | 0.425 | 0.709 | 0.716 | 0.619 | 0.525 | 0.393 |  |  |  |  | 
COR-L23 | 0.403 | 0.289 | 0.335 | 0.255 | 0.258 |  |  |  |  |  | 0.942 | 0.641 | 0.739 | 0.582 | 0.4 | 0.526 | 0.329 | 0.375 | 0.347 | 0.288
COR-L 105 | 0.691 | 0.725 | 0.59 | 0.546 | 0.584 |  |  |  |  |  | 0.418 | 0.317 | 0.349 | 0.378 | 0.296 | 0.635 | 0.636 | 0.478 | 0.479 | 0.473
Calu-6 | 0.532 | 0.498 | 0.514 | 0.502 | 0.466 |  |  |  |  |  | 1.02 | 0.801 | 0.771 | 0.599 | 0.535 |  |  |  |  | 
ChaGo-K-1 | 0.455 | 0.406 | 0.459 | 0.419 | 0.373 | 0.904 | 0.936 | 0.931 | 0.745 | 0.411 |  |  |  |  |  | 0.542 | 0.535 | 0.549 | 0.483 | 0.465
EKVX | 0.881 | 0.829 | 0.682 | 0.586 | 0.521 | 0.795 | 0.756 | 0.607 | 0.537 | 0.337 | 0.202 | 0.21 | 0.185 | 0.189 | 0.17 | 0.299 | 0.34 | 0.261 | 0.289 | 0.275
EMC-BAC-2 | 0.502 | 0.441 | 0.482 | 0.427 | 0.429 | 0.981 | 0.952 | 0.944 | 0.822 | 0.536 | 0.897 | 0.854 | 0.771 | 0.718 | 0.351 | 1.11 | 0.853 | 0.84 | 0.681 | 0.562
EPLC-272H | 0.86 | 0.481 | 0.578 | 0.35 | 0.222 | 0.313 | 0.263 | 0.245 | 0.292 | 0.118 | 1.02 | 0.88 | 0.761 | 0.64 | 0.216 | 0.426 | 0.404 | 0.37 | 0.298 | 0.246
H3255 | 0.606 | 0.509 | 0.457 | 0.397 | 0.402 | 1.04 | 0.918 | 0.736 | 0.559 | 0.514 | 0.249 | 0.3 | 0.27 | 0.232 | 0.214 | 0.685 | 0.556 | 0.605 | 0.48 | 0.492
HARA | 0.842 | 0.865 | 0.762 | 0.996 | 0.76 | 0.239 | 0.426 | 0.283 | 0.297 | 0.166 | 0.737 | 0.682 | 0.735 | 0.664 | 0.332 | 0.758 | 0.593 | 0.515 | 0.625 | 0.435
HCC-15 | 0.758 | 0.75 | 0.793 | 0.631 | 0.56 | 1.12 | 0.998 | 0.758 | 0.799 | 0.236 | 0.802 | 0.702 | 0.639 | 0.488 | 0.215 | 0.496 | 0.523 | 0.48 | 0.263 | 0.238
HCC-44 | 0.973 | 0.925 | 0.993 | 0.957 | 0.942 | 0.943 | 0.979 | 0.959 | 0.899 | 0.837 | 0.876 | 0.898 | 0.853 | 0.767 | 0.494 | 0.869 | 0.846 | 0.934 | 0.847 | 0.804
HCC-78 | 0.93 | 1.01 | 0.863 | 0.758 | 0.636 | 0.772 | 0.811 | 0.483 | 0.511 | 0.415 | 0.661 | 0.633 | 0.514 | 0.54 | 0.37 | 0.786 | 0.756 | 0.719 | 0.664 | 0.514
